Assay [1] deals with T1, SMP-C2AB of E-Syt1 (Homo sapiens, UniProt Q9BSJ8, V169W/L308W).
T1 construct: gene ESYT1; SMP-C2A-C2B fragment, residues 93-634, His-tagged (pCMV6-AN-His), Expi293 cells, Ni-NTA and gel filtration
T1 sequence (Q9BSJ8 93-634 V169W/L308W): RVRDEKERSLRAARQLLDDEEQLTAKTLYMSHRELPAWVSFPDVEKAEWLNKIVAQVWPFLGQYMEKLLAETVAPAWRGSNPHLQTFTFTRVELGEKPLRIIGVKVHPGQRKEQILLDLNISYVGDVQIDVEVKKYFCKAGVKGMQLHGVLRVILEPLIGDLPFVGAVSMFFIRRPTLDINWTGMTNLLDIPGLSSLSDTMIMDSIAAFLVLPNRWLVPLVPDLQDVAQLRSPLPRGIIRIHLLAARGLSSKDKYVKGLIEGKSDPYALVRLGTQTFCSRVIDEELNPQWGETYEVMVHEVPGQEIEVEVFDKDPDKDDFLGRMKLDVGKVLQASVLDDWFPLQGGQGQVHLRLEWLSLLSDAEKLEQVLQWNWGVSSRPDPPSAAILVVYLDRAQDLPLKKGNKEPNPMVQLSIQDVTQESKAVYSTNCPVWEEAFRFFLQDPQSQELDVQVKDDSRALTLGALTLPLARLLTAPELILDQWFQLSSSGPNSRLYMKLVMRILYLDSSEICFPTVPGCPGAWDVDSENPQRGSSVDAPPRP
The assay can be described thus: native PAGE, NBD fluorescence of protein band. It is filed as binding. The settings on record: protein 40 uM, 4 °C, 1 h; solubilized NBD-PE added in methanol; lipid cavity blocked; labelled compound.

Assay [2] has as its target T2, SMP domain of E-Syt1 (SMP) (Homo sapiens, UniProt Q9BSJ8).
T2 construct: gene ESYT1; SMP domain alone, residues 134-327, N-terminal His tag (pET-28a), dimer
T2 sequence (Q9BSJ8 134-327): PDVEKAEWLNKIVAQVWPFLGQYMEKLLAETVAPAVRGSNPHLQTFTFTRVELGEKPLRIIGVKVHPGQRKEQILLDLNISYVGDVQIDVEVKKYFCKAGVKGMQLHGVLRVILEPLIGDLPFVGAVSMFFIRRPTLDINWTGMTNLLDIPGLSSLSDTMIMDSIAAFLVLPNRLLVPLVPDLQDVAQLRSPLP
Put plainly: FRET dequenching lipid transfer between liposomes. Conditions: 40-nm sorted ER-like donor and 800-nm PM-like acceptor liposomes, pH 7.4, 37 °C, Ca2+ not needed; Rhodamine-PE co-transferred; labelled compound. It is filed as biochemical.

The next assay addresses T3, full-length E-Syt1 (Homo sapiens, UniProt Q9BSJ8).
T3 construct: gene ESYT1; full length, residues 1-1104, His-tagged (pCMV6-AN-His), Expi293 cells, detergent-purified, reconstituted in ER-like liposomes
T3 sequence (Q9BSJ8 1-1104): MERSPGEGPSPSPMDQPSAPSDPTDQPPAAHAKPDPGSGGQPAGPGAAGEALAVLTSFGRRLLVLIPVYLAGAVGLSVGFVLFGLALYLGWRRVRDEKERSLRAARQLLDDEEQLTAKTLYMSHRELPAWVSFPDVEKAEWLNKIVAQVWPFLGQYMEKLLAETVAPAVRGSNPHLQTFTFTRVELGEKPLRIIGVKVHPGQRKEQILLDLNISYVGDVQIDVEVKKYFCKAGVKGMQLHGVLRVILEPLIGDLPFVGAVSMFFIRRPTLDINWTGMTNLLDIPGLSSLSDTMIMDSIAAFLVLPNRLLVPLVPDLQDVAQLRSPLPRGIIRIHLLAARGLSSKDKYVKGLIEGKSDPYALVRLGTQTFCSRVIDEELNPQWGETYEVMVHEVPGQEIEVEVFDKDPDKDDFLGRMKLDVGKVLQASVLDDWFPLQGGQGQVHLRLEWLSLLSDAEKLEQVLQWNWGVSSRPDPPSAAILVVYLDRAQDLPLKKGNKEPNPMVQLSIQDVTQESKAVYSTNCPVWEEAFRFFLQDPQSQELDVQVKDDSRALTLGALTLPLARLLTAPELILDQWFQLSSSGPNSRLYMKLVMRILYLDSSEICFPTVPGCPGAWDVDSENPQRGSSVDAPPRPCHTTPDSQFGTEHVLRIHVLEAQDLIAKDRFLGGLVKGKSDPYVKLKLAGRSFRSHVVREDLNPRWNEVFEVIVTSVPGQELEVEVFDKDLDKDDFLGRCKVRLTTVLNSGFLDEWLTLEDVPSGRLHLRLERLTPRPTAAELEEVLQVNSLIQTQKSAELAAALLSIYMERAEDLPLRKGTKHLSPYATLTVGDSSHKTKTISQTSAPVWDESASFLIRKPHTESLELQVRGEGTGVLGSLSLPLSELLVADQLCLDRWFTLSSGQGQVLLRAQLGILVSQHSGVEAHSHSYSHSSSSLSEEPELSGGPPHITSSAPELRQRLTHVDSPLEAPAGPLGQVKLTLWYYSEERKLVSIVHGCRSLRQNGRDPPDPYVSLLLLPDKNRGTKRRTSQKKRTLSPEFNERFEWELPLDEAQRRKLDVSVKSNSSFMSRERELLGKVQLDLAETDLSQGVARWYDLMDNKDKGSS
The assay can be described thus: FRET dequenching lipid transfer from proteoliposomes. The class given is biochemical. The settings on record: Ca2+ present, 40-nm sorted ER-like proteoliposomes, 800-nm PM-like acceptors, pH 7.4, room temperature; labelled compound.

In assay [3] the target is T4, SMP-C2AB of E-Syt1 (Homo sapiens, UniProt Q9BSJ8).
T4 construct: gene ESYT1; SMP-C2A-C2B fragment, residues 93-634, His-tagged (pCMV6-AN-His), Expi293 cells, Ni-NTA and gel filtration
T4 sequence (Q9BSJ8 93-634): T1 sequence (Q9BSJ8 93-634 V169W/L308W) with W77V, W216L
The assay can be described thus: native PAGE, NBD fluorescence of protein band. The class given is binding. Conditions: protein 40 uM, 4 °C, 1 h; solubilized NBD-PE added in methanol; labelled compound.

The target of another assay is T5, SMP of E-Syt2 (Homo sapiens, UniProt A0FGR8).
T5 construct: gene ESYT2; SMP domain alone, residues 162-355, His tag (pET-28a), dimer
T5 sequence (A0FGR8 162-355 isoform A0FGR8-2): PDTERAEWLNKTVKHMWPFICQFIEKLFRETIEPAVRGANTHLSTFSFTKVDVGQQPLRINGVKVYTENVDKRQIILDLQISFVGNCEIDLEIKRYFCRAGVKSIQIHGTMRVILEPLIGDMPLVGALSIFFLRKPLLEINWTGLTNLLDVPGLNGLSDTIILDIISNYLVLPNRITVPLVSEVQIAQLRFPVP
The assay can be described thus: FRET dequenching lipid transfer between liposomes. It is filed as biochemical. The settings on record: curved ER-like donor and PM-like acceptor liposomes, pH 7.4; labelled compound.

In a further assay the target is T6, E-Syt1cyto (Homo sapiens, UniProt Q9BSJ8).
T6 construct: gene ESYT1; cytosolic region, residues 93-1104, N-terminal hairpin region replaced by His tag (pCMV6-AN-His)
T6 sequence (Q9BSJ8 93-1104): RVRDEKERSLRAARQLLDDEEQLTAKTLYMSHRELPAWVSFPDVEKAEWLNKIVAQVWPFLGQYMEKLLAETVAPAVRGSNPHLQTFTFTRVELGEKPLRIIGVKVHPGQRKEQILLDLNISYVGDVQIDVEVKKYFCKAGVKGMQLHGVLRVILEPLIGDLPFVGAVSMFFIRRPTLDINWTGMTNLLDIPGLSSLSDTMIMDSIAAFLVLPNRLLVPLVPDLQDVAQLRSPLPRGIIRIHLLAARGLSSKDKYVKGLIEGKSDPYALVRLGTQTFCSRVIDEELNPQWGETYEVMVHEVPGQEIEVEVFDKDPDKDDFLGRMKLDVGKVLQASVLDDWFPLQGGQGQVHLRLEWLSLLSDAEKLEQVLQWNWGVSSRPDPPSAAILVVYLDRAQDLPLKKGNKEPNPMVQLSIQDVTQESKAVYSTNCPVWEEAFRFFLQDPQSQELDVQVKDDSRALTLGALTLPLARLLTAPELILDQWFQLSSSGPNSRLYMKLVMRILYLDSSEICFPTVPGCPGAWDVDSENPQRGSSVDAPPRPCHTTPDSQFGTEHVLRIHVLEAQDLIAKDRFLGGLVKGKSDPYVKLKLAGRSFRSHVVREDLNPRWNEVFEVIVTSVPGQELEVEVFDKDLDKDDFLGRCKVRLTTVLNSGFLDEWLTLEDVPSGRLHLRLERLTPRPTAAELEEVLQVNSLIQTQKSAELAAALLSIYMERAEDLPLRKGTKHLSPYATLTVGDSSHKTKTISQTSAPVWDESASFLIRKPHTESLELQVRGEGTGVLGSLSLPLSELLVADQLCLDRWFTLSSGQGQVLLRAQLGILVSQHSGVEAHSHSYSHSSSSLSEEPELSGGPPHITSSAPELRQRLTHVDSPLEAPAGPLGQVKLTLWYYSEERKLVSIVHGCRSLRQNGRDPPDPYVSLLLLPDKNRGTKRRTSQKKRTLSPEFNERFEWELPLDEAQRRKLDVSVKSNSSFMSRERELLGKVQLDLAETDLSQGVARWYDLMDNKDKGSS
The assay can be described thus: FRET dequenching lipid transfer between liposomes. It is filed as biochemical. The settings on record: Ca2+ present, His tag on DGS-NTA(Ni) ER-like donor liposomes, PM-like acceptors, pH 7.4; labelled compound.

The target of a further assay is T7, SMP of E-Syt3 (Homo sapiens, UniProt A0FGR9).
T7 construct: gene ESYT3; SMP domain alone, residues 113-304, His tag (pET-28a); full-length protein 886 residues
T7 sequence (A0FGR9 113-304): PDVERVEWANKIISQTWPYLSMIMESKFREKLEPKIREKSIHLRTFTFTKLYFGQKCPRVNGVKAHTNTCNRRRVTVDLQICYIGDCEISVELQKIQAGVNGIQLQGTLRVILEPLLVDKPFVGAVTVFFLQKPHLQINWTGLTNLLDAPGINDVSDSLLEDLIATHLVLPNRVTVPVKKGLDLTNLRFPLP
Put plainly: FRET dequenching lipid transfer between liposomes. The class given is biochemical. Conditions: curved ER-like donor and PM-like acceptor liposomes, pH 7.4; labelled compound.

In assay [4] the target is T8, SMP-C2AB of E-Syt1 (Homo sapiens, UniProt Q9BSJ8, K227E).
T8 construct: gene ESYT1; SMP-C2A-C2B fragment, residues 93-634, His-tagged (pCMV6-AN-His), Expi293 cells, Ni-NTA and gel filtration
T8 sequence (Q9BSJ8 93-634 K227E): T1 sequence (Q9BSJ8 93-634 V169W/L308W) with W77V, K135E, W216L
Put plainly: native PAGE, NBD fluorescence of protein band. It is filed as binding. Conditions: protein 40 uM, 4 °C, 1 h; solubilized NBD-PE added in methanol; labelled compound.

Positions count from the first letter of the chain named.

In the case of `CCCCCCCC/C=C\CCCCCCCC(=O)OC[C@H](COP(=O)(O)OCCNc1ccc([N+](=O)[O-])c2nonc12)OC(=O)CCCCCCC/C=C\CCCCCCCC` [NBD-PE, 1,2-dioleoyl-sn-glycero-3-phosphoethanolamine-N-(7-nitro-2-1,3-benzoxadiazol-4-yl)], the “native PAGE, NBD fluorescence of protein band” value was “block the hydrophobic cavity of the SMP domain (V169W/L308W) impaired lipid harboring” at SMP-C2AB of E-Syt1 [1]; “solubilized NBD-PE was loaded onto purified WT protein and K227E mutant” on SMP-C2AB of E-Syt1 [3]; “NBD-PE was loaded onto purified WT protein and K227E mutant at a similar level” on SMP-C2AB of E-Syt1 [4]. Moreover, the “FRET dequenching lipid transfer between liposomes” value in assay [2] is 40-nm sorted ER-like liposomes produced a robust lipid transfer level; on SMP of E-Syt2, “SMP domains of E-Syt2 and E-Syt3 showed similar membrane curvature- and charge-facilitated lipid transfer”; at E-Syt1cyto it was “purified His-tagged E-Syt1cyto had comparable lipid transfer and membrane tethering levels as full-length E-Syt1”; on SMP of E-Syt3, “SMP domains of E-Syt2 and E-Syt3 showed similar membrane curvature- and charge-facilitated lipid transfer”. For the same compound, the “FRET dequenching lipid transfer from proteoliposomes” value at full-length E-Syt1 is on record as 40-nm sorted ER-like proteoliposomes dramatically accelerated the lipid transfer by E-Syt1.

These data come from article PMC10023780, “Insights into membrane association of the SMP domain of extended synaptotagmin” (Nature Communications, 2023).
